Measured values as given in PMC6927504, “Screening of House Dust from Chinese Homes for Chemicals with Liver X Receptors Binding Activities and Characterization of Atherosclerotic Activity Using an in Vitro Macrophage Cell Line and ApoE^−/− Mice” (Environmental Health Perspectives, 2019).

Experiments:
RAW264.7 macrophages [1] = assay: CellTiter-Glo Luminescent Cell Viability Assay; assay type: cell-based; conditions: 24-h exposure at 1–20,000 nM
Method: (§1) RAW264.7 cells were obtained from the National Infrastructure of Cell Line Resource of Beijing, China, and the cells used for the experiment were cultured for at least three passages. Dulbecco’s Modified Eagle’s Medium (DMEM)-F12 medium containing 10% fetal bovine serum (FBS) was employed to culture the RAW264.7 cells. RAW264.7 cells were incubated at 37°C with 5% carbon dioxide. The RAW264.7 cells were plated at 2.5×10^5 cells/well (6-well plates), 6.0×10^4 cells/well (24-well plates), and 10^4 cells/well (96-well plates). The RAW264.7 cells were plated and grown overnight; then the medium was removed and fresh DMEM-F12 contained with 0.1% DMSO (control; n=3 ) or TPHP at the concentrations of 1–20,000 nM ( n=3 per group) was added. […] Then the cells were used for the quantitative reverse transcription (qRT)-PCR, cellular cholesterol efflux assay, and foam cell formation experiment.
Cell viability was assessed using the CellTiter-Glo® Luminescent Cell Viability Assay based on the manufacturer’s instructions ( n=3 per group). Luminescence was assessed using an LB 941 TriStar multimode microplate reader (Berthold Technologies).

RAW264.7 macrophages [2] = assay: Cellular NBD-cholesterol efflux assay in RAW264.7 macrophages; assay type: cell-based
Method: as §1, with “plates).” for “plates). The RAW264.7 cells were plated and grown overnight; then the medium was removed and fresh DMEM-F12 contained with 0.1% DMSO (control; n=3 ) or TPHP at the concentrations of 1–20,000 nM ( n=3 per group) was added.”
RAW264.7 cells or mouse peritoneal macrophages were plated in 96-well plates at 10^4 cells/well and cultured with DMEM-F12 containing 10% FBS and 1μg/mL 22-[N-(7-nitrobenz-2-oxa-1,3-diazol-4-yl)amino]-23,24-bisnor-5-cholen-3β-Ol (NBD-cholesterol) for 24 h. […] NBD-cholesterol in the medium and cell lysis buffer were measured, respectively, using a Tecan Infinite® M1000Pro Microplate Reader (Tecan Group Ltd.) at 485-nm excitation wavelength and 535-nm emission wavelength. Cholesterol efflux was expressed as a percentage of fluorescence in the medium relative to the total amount of fluorescence.

[3] = test system: mouse peritoneal macrophages; assay: Foam cell formation in peritoneal macrophages isolated from exposed C57BL/6 mice; assay type: in vivo; conditions: 200 mg/kg BW for 7 d, p<0.05
Method: RAW264.7 cells or mouse peritoneal macrophages were plated in 24-well plates at 6.0×10^4 cells/well and grown overnight. Then the medium was removed and fresh DMEM-F12 containing 10% FBS, 20μg/mL oxidized low-density lipoprotein (ox-LDL), and 0.1% DMSO (control; n=3 ) or TPHP at the concentration of 1–20,000 nM ( n=3 per group) was added. The cells were washed with PBS, followed by fixing in 4% paraformaldehyde for 30 min and staining with boron-dipyrromethene (BODIPY) 493/503 ( 20μg/mL ) and 4′,6-diamidino-2-phenylindole (DAPI; 100 ng/mL ) for 10 min. Foam cell formation was analyzed by high-content microscopy using ImageXpress® Micro XL (Molecular Devices). From each well, 25 image fields were scanned, and MetaXpress® (Molecular Devices) was used to quantify compartmentalized changes in the fluorescence of each cell.
All experiments related to animals were approved by the institutional animal care and use committee of Peking University and followed the guidelines for animal experiments of the university as well as for experimental animals in China. […] Body weight (BW) was measured every week during the dosing period. […] Considering that this study assessed the effects of short-term exposure to TPHP, whereas humans are exposed to TPHP over a lifelong period, the present study used exposure doses that were higher than that of human exposure from house dust. […]

[4] = test system: human primary preadipocytes; set-up: method as in Tung et al. 2017; conditions: ref Tung et al. 2017; cited from earlier work

Structure (SMILES): O=P(Oc1ccccc1)(Oc1ccccc1)Oc1ccccc1 [TPHP, triphenyl phosphate]
- Cell viability (RAW264.7 macrophages [1]): no significant loss of cell viability
- NBD-cholesterol efflux mediated by ApoA-I (RAW264.7 macrophages [2]; 100–20,000 nM): significantly inhibited
- NBD-cholesterol efflux mediated by HDL (RAW264.7 macrophages [2]; 1,000–20,000 nM): significantly inhibited
- Foam cell staining in peritoneal macrophages relative to control [3]: 2.88±0.95 fold
- Adipogenesis [4]: promote adipogenesis
